The results in this text go back to patent US20190174768A1 (priority 2016, published 2019).

One assay deals with F. graminearum. Type of assay: cell-based, Fusarium graminearum.
Assay [1] relates to Venturia inaequalis Strain EUB04. The assay is described as follows: In planta test on apple plantlets against apple scab. The conditions noted are these: reference fungicide mode, D9 to D21. The class given is in vivo. On the procedure: The in planta tests on apple plantlets were carried out according to the following protocol:
2 modes tested: spraying of extract D at 5 g/L 2 hours before inoculation (ExtractBefore) and spraying of extract D at 5 g/L 3 hours after inoculation (ExtractAfter)
3 control modes: • 2 untreated control modes (spraying of water on the same dates as the product) (WaterBefore and WaterAfter) • 1 mode with a reference fungicide (captan)
Artificial inoculation of plants with a Venturia inaequalis strain at 100 000 spores/ml.
Scab symptoms noted at 4 dates post-inoculation (visual estimate of % scab area)
Biological material: • Plantlets derived from roughly 3-week-old apple seedlings in soil balls—from pips taken from the Gala variety (apples harvested in an orchard planted with Gala and Elstar) • Venturia inaequalis spores on cellophane—Strain EUB04
3 boxes of 12 plantlets for each mode
D+9, D+14, D+17, D+21: Notation of percentage of leaf area affected (from 0 to 100% in 10% increments)
Since the normality and homogeneity conditions of the variances of the residues were not met, a non-parametric Kruskal-Wallis test was performed. This test being significant, the medians of the different modes were compared pairwise using the Nemenyi test based on Tukey's distance. These analyses were carried out with the R software (version 3.1.2).

Molecules are shown by their SMILES.

Turning to `C=C/C=C/CC/C=C/C=C/C=C/CC/C=C/[C@H](O)[C@H](O)[C@@H]1O[C@@H]([C@H](O)[C@H](O)C(=C)CC[C@@H](O)[C@H]2C[C@@H](O)[C@@H](O)[C@H]([C@@H](O)[C@H](O)/C=C(\C)CCC(O)CC(O)C(O)C(C)CC(O)C(O)CC(C)CCC(O)CC(=O)CC(O)CCCC(O)CCCCC(O)CO)O2)C[C@@H](O)[C@H]1O` (some centres unmarked) [amphidinol 18], the “antifungal activity against F. graminearum” value in the assay on F. graminearum was “has antifungal activity against F. graminearum”. `O=C1C2CC=CCC2C(=O)N1SC(Cl)(Cl)Cl` (centres unmarked) [captan]: the scab development entry in assay [1] is given as “no scab development was observed”.
